For data set [1], the system named is normal human epidermal cells. Briefly: Evaluation for glutathione production promoting activity (total glutathione amount, glutathione reductase recycling assay). As to conditions: for GSH (pmol/μg-protein) Mean ± S.D.: 24-hour cultivation, n=4; for glutathione production promoting activities compared with Nahlsgen: summary of Tables 5-1 and 5-2. The data set is classed as cell-based. As to the method: D-2-Amino-8-phosphonooctanoic acid monohydrate obtained in Example 8, which was used as a sample, was evaluated for glutathione production promoting activity by the following method (n=4).
Specifically, normal human epidermal cells were seeded in a 96-well microplate at a density of 2.0×10^4 cells per 96 wells, using a normal human epidermal keratinocyte growth medium HuMedia KG2 (trade name, supplied by Kurabo Industries Ltd.).
After 24 hours from the seeding, the medium was exchanged with a normal human epidermal keratinocyte growth medium HuMedia KB2 (trade name, supplied by Kurabo Industries Ltd.) containing the sample in a predetermined concentration, and the cultivation was continued. As a blank, the cells were cultured by a procedure similar to above, except for not using the sample.
After 24-hour cultivation, the cells were disrupted by ultrasonication using a phosphate buffer containing 100 μM phenylmethylsulfonyl fluoride, and the total glutathione amount was determined by glutathione reductase recycling assay.
Specifically, a suspension of the disrupted cells were mixed with reduced nicotinamide adenine dinucleotide phosphate and glutathione reductase, followed by reaction at 37° C. for 10 minutes.
Next, 0.1 M phosphate buffer (containing 0.5 M EDTA, pH 7.5) containing dissolved 10 mM 5,5′-dithiobis(2-nitrobenzoic acid) was added, and the mixture was incubated for 30 minutes. The absorbance at 450 nm was measured immediately after addition, and after incubation for 30 minutes. The difference in absorbance, which is calculated by subtracting the absorbance immediately after addition from the absorbance after 30-minute incubation, was defined as an index for glutathione synthesis quantity.
The total glutathione amount in the disrupted cell suspension was determined on the basis of a calibration curve plotted using oxidized glutathione. The protein content in the disrupted cell suspension was determined using the Pierce Microplate BCA Protein Assay Kit (Thermo SCIENTIFIC). The glutathione synthesis quantity was evaluated for differences from the untreated specimen (blank) and from the positive object by a significant difference test using Student's t-test. The results of the tests, each of which was performed two times, are given in Tables 4-1 (first test) and 4-2 (second test).
Tests were performed (n=4) to determine glutathione production promoting activity by a procedure similar to above, except for using, as a sample instead of D-2-amino-8-phosphonooctanoic acid monohydrate, D-2-amino-4-phosphonobutanoic acid L-Arg salt obtained in Example 2, or D-2-amino-4-phosphonobutanoic acid D-Arg salt monohydrate obtained in Example 3.
A test as a referential example was also performed by a procedure similar to above, except for using Nahlsgen (generic name: DL-2-amino-4-[(RSp)-(3-carboxymethylphenoxy) (methoxy)phosphoryl]butanoic acid), instead of the sample.

For data set [2], the target named is gamma-glutamyl transpeptidase (GGT) (Homo sapiens, UniProt P19440). As to conditions: known from Patent Literature (PTL) 1; cited from earlier work.
Chain of gamma-glutamyl transpeptidase (GGT) (P19440 whole entry, species assumed): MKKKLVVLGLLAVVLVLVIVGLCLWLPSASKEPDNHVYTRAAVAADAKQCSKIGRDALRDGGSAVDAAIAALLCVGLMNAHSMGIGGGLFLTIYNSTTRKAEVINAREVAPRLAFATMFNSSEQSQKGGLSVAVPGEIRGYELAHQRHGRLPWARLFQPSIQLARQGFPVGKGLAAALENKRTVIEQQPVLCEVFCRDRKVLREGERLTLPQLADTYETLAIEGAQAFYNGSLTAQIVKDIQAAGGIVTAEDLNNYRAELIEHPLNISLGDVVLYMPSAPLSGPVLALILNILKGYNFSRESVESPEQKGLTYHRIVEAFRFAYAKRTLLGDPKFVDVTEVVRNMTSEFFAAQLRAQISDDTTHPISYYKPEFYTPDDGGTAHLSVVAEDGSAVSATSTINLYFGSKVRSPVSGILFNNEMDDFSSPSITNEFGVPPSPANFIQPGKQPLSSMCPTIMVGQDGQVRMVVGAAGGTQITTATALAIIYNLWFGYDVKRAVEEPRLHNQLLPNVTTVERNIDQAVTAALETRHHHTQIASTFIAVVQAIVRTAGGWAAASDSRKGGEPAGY
The conditions of data set [3]: room temperature; amorphous powdery solid obtained through lyophilization; cited from earlier work.
Where [4] appears, read: Table 5-1, first test, 10.00 μmol/L.
Where [5] appears, read: Table 5-2, second test, 10.00 μmol/L.
The mark [6] stands for this setting: Table 5-2, second test, 50.00 μmol/L.
Where [7] appears, read: Table 5-1, first test, 2.00 μmol/L.
Setting [8] is: Table 5-1, first test, 50.00 μmol/L.
[9] abbreviates: Table 5-1, first test, 250.00 μmol/L.
Where [10] appears, read: Table 5-2, second test, 2.00 μmol/L.
Where [11] appears, read: Table 5-2, second test, 250.00 μmol/L.

The melting point is the temperature, or range, at which the solid turns liquid.

Consider `N[C@@H](CCCCCCP(=O)(O)O)C(=O)O.O` (hydrate or solvate), for which the melting point was found to be 73 °C.
Same read-out and setting: in the case of `N[C@H](CCCCCCP(=O)(O)O)C(=O)O.O` (hydrate or solvate) [D-2-amino-8-phosphonooctanoic acid monohydrate] it was 75.3 °C.
For `COP(=O)(CCC(N)C(=O)O)Oc1cccc(CC(=O)O)c1` (racemic) [Nahlsgen, DL-2-amino-4-[(RSp)-(3-carboxymethylphenoxy)(methoxy)phosphoryl]butanoic acid, reference compound], the “GSH (pmol/μg-protein) Mean ± S.D.” value in data set [1] (setting [4]) is listed as 44.7 ± 2.7 pmol/μg-protein; in data set [1] (setting [5]), 36.2 ± 3.4 pmol/μg-protein; in data set [1] (setting [6]), 36.5 ± 3.9 pmol/μg-protein. Further, the GGT inhibitor activity entry in data set [2] is “excellent gamma-glutamyl transpeptidase (GGT) inhibitor”. Further, the “deliquescency / decomposition on storage” value in data set [3] is “deliquescent and is liable to decompose at room temperature”.
For the molecule `N=C(N)NCCC[C@@H](N)C(=O)O.N[C@H](CCP(=O)(O)O)C(=O)O.O` [D-2-amino-4-phosphonobutanoic acid D-Arg salt monohydrate], the “GSH (pmol/μg-protein) Mean ± S.D.” value came out at 38.6 ± 3.1 pmol/μg-protein in data set [1] (setting [7]); 46.2 ± 1.8 pmol/μg-protein in data set [1] (setting [4]); 36.3 ± 4.0 pmol/μg-protein in data set [1] (setting [8]); 40.9 ± 8.1 pmol/μg-protein in data set [1] (setting [9]); 35.8 ± 1.1 pmol/μg-protein in data set [1] (setting [10]); 35.8 ± 1.2 pmol/μg-protein in data set [1] (setting [5]). Also, the “GSH (pmol/μg-protein) Mean ± S.D.” value stood at 37.3 ± 1.9 pmol/μg-protein in data set [1] (setting [6]) and 37.1 ± 1.7 pmol/μg-protein in data set [1] (setting [11]). Moreover, the “glutathione production promoting activities compared with Nahlsgen” value in data set [1] was “significant glutathione production promoting activities comparable to or higher than those of Nahlsgen”.
On to `N=C(N)NCCC[C@H](N)C(=O)O.N[C@H](CCP(=O)(O)O)C(=O)O` [D-2-amino-4-phosphonobutanoic acid L-Arg salt], for which the “GSH (pmol/μg-protein) Mean ± S.D.” value turned out to be 49.2 ± 7.5 pmol/μg-protein in data set [1] (setting [7]); 51.0 ± 1.6 pmol/μg-protein in data set [1] (setting [4]); 43.9 ± 9.3 pmol/μg-protein in data set [1] (setting [8]); 42.9 ± 9.8 pmol/μg-protein in data set [1] (setting [9]); 37.6 ± 2.2 pmol/μg-protein in data set [1] (setting [10]); 35.4 ± 2.1 pmol/μg-protein in data set [1] (setting [5]). Also, the “GSH (pmol/μg-protein) Mean ± S.D.” value in data set [1] (setting [6]) was determined as 37.2 ± 3.0 pmol/μg-protein; in data set [1] (setting [11]), 36.3 ± 1.5 pmol/μg-protein. For the same molecule, the “glutathione production promoting activities compared with Nahlsgen” value in data set [1] was “significant glutathione production promoting activities comparable to or higher than those of Nahlsgen”.
Regarding `N[C@H](CCCCCCP(=O)(O)O)C(=O)O.O` [D-2-amino-8-phosphonooctanoic acid monohydrate], the “GSH (pmol/μg-protein) Mean ± S.D.” value in data set [1] (Table 4-1, first test, 2.00 μmol/L) worked out at 59.5 ± 2.0 pmol/μg-protein; in data set [1] (Table 4-1, first test, 10.00 μmol/L), 60.6 ± 2.3 pmol/μg-protein; in data set [1] (Table 4-1, first test, 50.00 μmol/L), 59.7 ± 8.5 pmol/μg-protein; in data set [1] (Table 4-1, first test, 250.00 μmol/L), 61.0 ± 3.0 pmol/μg-protein; in data set [1] (Table 4-2, second test, 2.00 μmol/L), 35.3 ± 1.7 pmol/μg-protein; in data set [1] (Table 4-2, second test, 10.00 μmol/L), 34.8 ± 1.9 pmol/μg-protein. For the same molecule, the “GSH (pmol/μg-protein) Mean ± S.D.” value in data set [1] (Table 4-2, second test, 50.00 μmol/L) was 34.8 ± 2.6 pmol/μg-protein; in data set [1] (Table 4-2, second test, 250.00 μmol/L), 33.6 ± 2.3 pmol/μg-protein. Further, the “glutathione production promoting activity as compared with the blank” value in data set [1] (summary of Tables 4-1 and 4-2, versus untreated specimen) is “significant glutathione production promoting activity”.

The values above are taken from patent US11220521B2, “Optically-active 2-amino-phosphonoalkane acid, optically-active 2-amino-phosphonoalkane acid salt, and hydrates of these” (priority 2017, dated 2022).
